Assay results published in US9724537B2, “Abnormal electrical conduction blocking apparatus using photodynamic therapy (PDT)” (Keio University, priority 2006, dated 2017).

What was measured:
[1] = test system: myoblast strain H9c2 (2-1) derived from the rat cardiac muscle; test: PDT cell lethality (CCK-8) in cell strain H9c2 (2-1); format: cell-based
Experimental: Using a skeletal muscle-like myoblast strain H9c2 (2-1) derived from the rat cardiac muscle, the relationship between the photosensitizer concentration and the cell lethality and the laser output required to induce cell death were investigated.
The above-mentioned cells were subcultured in a D-MEM+10% FBS medium, confluent cells were isolated, seeded on a 96-well microplate, and cultured at 37° C. under 5% CO2 for one day.
The cultured cells were adjusted to a density of 2.0×10^4 cells/well. As a photosensitizer, talaporfin sodium was dissolved in a medium at various concentrations and added at a concentration of 0.1 ml/well. After 1 to 2 h of loading, cells were irradiated with a laser beam. After completion of irradiation, the medium was replaced.
At this time, in a 0.5-cm^2 irradiation field (=area of the well) was irradiated with a continuous semiconductor laser beam (peak wavelength, 670.8 nm) under various conditions.
After irradiation with a laser beam, 0.01 ml of Cell Counting Kit-8 (Dojindo Laboratories, hereinafter referred to as CCK-8) was added to the medium in each well, the plate was incubated for 2 h, and then absorbance was measured to obtain the cell lethality. For calculation of the cell lethality, the property of a coloring reagent in CCK-8 of producing a color upon reduction with dehydrogenase in the cell was utilized. Six samples were examined.
The experimental conditions were as follows.
(i) Relationship between photosensitizer concentration and cell lethality
Agent concentrations: 10, 20, 30, 40 μg/ml
(§1) Laser intensity: 150 mW/cm^2
Total energy density: 3 J/cm^2
(ii) Relationship between total energy density of laser irradiation and cell lethality
Agent concentrations: 7.5, 15 μg/ml
Total energy density: 3, 6, 9, 12 J/cm^2
(iii) Relationship between laser intensity and cell lethality

[2] = test system: isolated ventricular muscle tissue; test: Formation of electrical conduction block by PDT in isolated cardiac muscle tissue; set-up: species or system Wister rat; conditions: 4.3 μg/ml
Experimental: An electrical conduction block was formed by performing PDT using a cardiac muscle tissue.
A cardiac muscle tissue was isolated from a Wister rat, immersed in a perfusion fluid (Tyrode's solution [aerated with 95% O2 and 5% CO2 gases and stored at 37° C. in a constant-temperature apparatus]), spread, fixed on the floor (made of silicon) of a tissue bath with a tungsten wire to prepare a spread sample (maximum 1.5 cm long, 1.0 cm width, 0.18 cm thickness) of an isolated ventricular muscle. A perfusion fluid was passed through the spread sample and stabilized by allowing to stand for approx. 3 h. At this time, the perfusion fluid was not reused.
As a photosensitizer, talaporfin sodium was dissolved in a perfusion fluid at 4.3 μg/ml, and 300 cc was circulated and perfused. It is assumed that, when a photosensitizer is intravenously injected to a 300-g rat at approx. 2 mg/kg, the photosensitizer is dissolved at about this concentration in the fluid throughout the body. After loading for 2 h, a liquid level of the perfusion fluid was lowered to the tissue surface or lower, and the spread tissue was irradiated with a laser beam.
The irradiation laser beam was a continuous semiconductor laser beam (peak wavelength, 670.8 nm) and was delivered to the tissue from an irradiation port of 0.0078 cm^2 at the fiber end with an intensity of 150 mW/cm^2 in a contact state. While moving the fiber, a 0.1-cm^2 (0.1 cm length×1 cm width) region of the tissue surface was irradiated with a laser beam for 5 min. Irradiation was performed at 3.5 J/cm^2 in terms of total energy density.
The tissue action potential was measured as follows. An electrical stimulus of 2 Hz and 50 mA was applied from a bipolar electrode (0.2φ silver wire) using a stimulator, and a potential of the tissue surface was led with a bipolar measuring electrode (0.25φ stainless wire).
FIGS. 8A to 8F show changes in the potential of the spread tissue. In FIGS. 8A to 8F, the upper line represents potential changes at site 1 in FIG. 7. The lower line represents potential changes at site 2 in FIG. 7. The unit of the vertical axis is mV.

[3] = test system: rat cardiac muscle cells in primary culture; test: Pulsation and cell conditions of cardiac muscle cells in primary culture after PDT; format: cell-based
Experimental: Cardiac muscle cells in primary culture were purchased in suspension and seeded on a 96-well microplate. Cells were cultured at 37° C. under 5% CO2, and cells on days 3 and 7 of culture were used. The cardiac muscle cells in primary culture were pulsatile, and pulsations among cells were synchronizing.
Cardiac muscle cells in primary culture were adjusted to a density of 2.0×10^4 cells/well. As a photosensitizer talaporfin sodium was dissolved in a medium at various concentrations and added at a concentration of 0.1 ml/well. After 1 to 2 h of loading, laser irradiation was performed, and the medium was replaced after the completion of irradiation.
At this time, a 0.5-cm^2 irradiation field (=area of well) was irradiated with a continuous semiconductor laser beam (peak wavelength, 670.8 nm) under various conditions. […]
as §1
Total energy density: 1, 2, 3, 5 J/cm^2
In Table 1, 1d, 2d, and 3d refer to one, two, and three days after PDT, respectively. μg refers to the photosensitizer concentration in μg/ml. Numerical values in Table 1 are (number of samples in which pulsation restarted)/(total number of samples).

[4] = rat, cited from earlier work

C=Cc1c(C)c2cc3nc(c(CC(=O)N[C@@H](CC(=O)O)C(=O)O)c4[nH]c(cc5nc(cc1[nH]2)C(C)=C5CC)c(C)c4C(=O)O)[C@@H](CCC(=O)O)[C@@H]3C [talaporfin sodium, mono-L-aspartyl chlorine 6]
cell death vs total energy density ([1]; 7.5 μg/ml, 150 mW/cm^2, 3, 6, 9, 12 J/cm^2, FIG. 2): almost no cell death was observed
cell lethality vs total energy density ([1]; 15 μg/ml, 150 mW/cm^2, 3, 6, 9, 12 J/cm^2, FIG. 2): the greater the total energy density of laser irradiation was, the higher the cell lethality was
cell lethality at 40 μg/ml ([1]; 40 μg/ml vs 30 μg/ml, 150 mW/cm^2, 3 J/cm^2): the result did not differ from that at 30 μg/ml
cell lethality vs laser intensity ([1]; 7.5, 15 μg/ml, 3 J/cm^2, laser intensity 50 to 200 mW/cm^2, FIG. 3): the cell lethality did not change
cell lethality vs photosensitizer concentration ([1]; up to 30 μg/ml, 150 mW/cm^2, 3 J/cm^2, FIG. 1): the higher the photosensitizer concentration was, the higher the cell lethality was
time without electrical conduction after block ([2]; loading 2 h, 3.5 J/cm^2): ≥ 1 h
electrical conduction (potential at site 2) ([2]; loading 2 h, 3.5 J/cm^2, 5 min after the completion of laser irradiation): the electrical conduction route was completely blocked
electrical conduction (potential at site 2) ([2]; loading 2 h, 150 mW/cm^2, 5 min after the start of laser irradiation): a portion of the stimulus conduction route is blocked
cell conditions in tissue sample at PDT site ([2]; 3.5 J/cm^2, FIG. 9): no major abnormality was observed in the cell conditions
Restart of pulsation in cardiac muscle cells: (number of samples in which pulsation restarted)/(total number of samples) ([3]; 5 μg (μg/ml), 1J, 1 d after PDT): 4/8
Restart of pulsation in cardiac muscle cells: (number of samples in which pulsation restarted)/(total number of samples) ([3]; 5 μg (μg/ml), 1J, 2 d after PDT): 8/8
Restart of pulsation in cardiac muscle cells: (number of samples in which pulsation restarted)/(total number of samples) ([3]; 5 μg (μg/ml), 1J, 3 d after PDT): 8/8
Restart of pulsation in cardiac muscle cells: (number of samples in which pulsation restarted)/(total number of samples) ([3]; 5 μg (μg/ml), 2J, 1 d after PDT): 1/8
Restart of pulsation in cardiac muscle cells: (number of samples in which pulsation restarted)/(total number of samples) ([3]; 5 μg (μg/ml), 2J, 2 d after PDT): 8/8
Restart of pulsation in cardiac muscle cells: (number of samples in which pulsation restarted)/(total number of samples) ([3]; 5 μg (μg/ml), 2J, 3 d after PDT): 8/8
Restart of pulsation in cardiac muscle cells: (number of samples in which pulsation restarted)/(total number of samples) ([3]; 5 μg (μg/ml), 3J, 1 d after PDT): 0/8
Restart of pulsation in cardiac muscle cells: (number of samples in which pulsation restarted)/(total number of samples) ([3]; 5 μg (μg/ml), 3J, 2 d after PDT): 7/8
Restart of pulsation in cardiac muscle cells: (number of samples in which pulsation restarted)/(total number of samples) ([3]; 5 μg (μg/ml), 3J, 3 d after PDT): 8/8
Restart of pulsation in cardiac muscle cells: (number of samples in which pulsation restarted)/(total number of samples) ([3]; 5 μg (μg/ml), 5J, 1 d after PDT): 0/8
Restart of pulsation in cardiac muscle cells: (number of samples in which pulsation restarted)/(total number of samples) ([3]; 5 μg (μg/ml), 5J, 2 d after PDT): 8/8
Restart of pulsation in cardiac muscle cells: (number of samples in which pulsation restarted)/(total number of samples) ([3]; 5 μg (μg/ml), 5J, 3 d after PDT): 8/8
Restart of pulsation in cardiac muscle cells: (number of samples in which pulsation restarted)/(total number of samples) ([3]; 10 μg (μg/ml), 1J, 1 d after PDT): 0/8
Restart of pulsation in cardiac muscle cells: (number of samples in which pulsation restarted)/(total number of samples) ([3]; 10 μg (μg/ml), 1J, 2 d after PDT): 8/8
Restart of pulsation in cardiac muscle cells: (number of samples in which pulsation restarted)/(total number of samples) ([3]; 10 μg (μg/ml), 1J, 3 d after PDT): 8/8
Restart of pulsation in cardiac muscle cells: (number of samples in which pulsation restarted)/(total number of samples) ([3]; 10 μg (μg/ml), 2J, 1 d after PDT): 0/8
Restart of pulsation in cardiac muscle cells: (number of samples in which pulsation restarted)/(total number of samples) ([3]; 10 μg (μg/ml), 2J, 2 d after PDT): 7/8
Restart of pulsation in cardiac muscle cells: (number of samples in which pulsation restarted)/(total number of samples) ([3]; 10 μg (μg/ml), 2J, 3 d after PDT): 8/8
Restart of pulsation in cardiac muscle cells: (number of samples in which pulsation restarted)/(total number of samples) ([3]; 10 μg (μg/ml), 3J, 1 d after PDT): 0/8
Restart of pulsation in cardiac muscle cells: (number of samples in which pulsation restarted)/(total number of samples) ([3]; 10 μg (μg/ml), 3J, 2 d after PDT): 8/8
Restart of pulsation in cardiac muscle cells: (number of samples in which pulsation restarted)/(total number of samples) ([3]; 10 μg (μg/ml), 3J, 3 d after PDT): 8/8
Restart of pulsation in cardiac muscle cells: (number of samples in which pulsation restarted)/(total number of samples) ([3]; 10 μg (μg/ml), 5J, 1 d after PDT): 1/8
Restart of pulsation in cardiac muscle cells: (number of samples in which pulsation restarted)/(total number of samples) ([3]; 10 μg (μg/ml), 5J, 2 d after PDT): 8/8
Restart of pulsation in cardiac muscle cells: (number of samples in which pulsation restarted)/(total number of samples) ([3]; 10 μg (μg/ml), 5J, 3 d after PDT): 8/8
pulsation immediately after PDT ([3]; 10 μg/ml, 3 J/cm^2): the pulsation stopped immediately after PDT
cell conditions at one day after PDT ([3]; 10 μg/ml, 3 J/cm^2, FIG. 12): no damage was observed in the cell conditions
restart of pulsation and synchronization ([3]; 10 μg/ml, 3 J/cm^2, see Table 1): the pulsation restarted, and synchronization was observed at about one to three days after experiment
Restart of pulsation in cardiac muscle cells: (number of samples in which pulsation restarted)/(total number of samples) ([3]; 15 μg (μg/ml), 1J, 1 d after PDT): 0/8
Restart of pulsation in cardiac muscle cells: (number of samples in which pulsation restarted)/(total number of samples) ([3]; 15 μg (μg/ml), 1J, 2 d after PDT): 8/8
Restart of pulsation in cardiac muscle cells: (number of samples in which pulsation restarted)/(total number of samples) ([3]; 15 μg (μg/ml), 1J, 3 d after PDT): 8/8
Restart of pulsation in cardiac muscle cells: (number of samples in which pulsation restarted)/(total number of samples) ([3]; 15 μg (μg/ml), 2J, 1 d after PDT): 0/8
Restart of pulsation in cardiac muscle cells: (number of samples in which pulsation restarted)/(total number of samples) ([3]; 15 μg (μg/ml), 2J, 2 d after PDT): 8/8
Restart of pulsation in cardiac muscle cells: (number of samples in which pulsation restarted)/(total number of samples) ([3]; 15 μg (μg/ml), 2J, 3 d after PDT): 8/8
Restart of pulsation in cardiac muscle cells: (number of samples in which pulsation restarted)/(total number of samples) ([3]; 15 μg (μg/ml), 3J, 1 d after PDT): 1/8
Restart of pulsation in cardiac muscle cells: (number of samples in which pulsation restarted)/(total number of samples) ([3]; 15 μg (μg/ml), 3J, 2 d after PDT): 8/8
Restart of pulsation in cardiac muscle cells: (number of samples in which pulsation restarted)/(total number of samples) ([3]; 15 μg (μg/ml), 3J, 3 d after PDT): 8/8
Restart of pulsation in cardiac muscle cells: (number of samples in which pulsation restarted)/(total number of samples) ([3]; 15 μg (μg/ml), 5J, 1 d after PDT): 0/8
Restart of pulsation in cardiac muscle cells: (number of samples in which pulsation restarted)/(total number of samples) ([3]; 15 μg (μg/ml), 5J, 2 d after PDT): 8/8
Restart of pulsation in cardiac muscle cells: (number of samples in which pulsation restarted)/(total number of samples) ([3]; 15 μg (μg/ml), 5J, 3 d after PDT): 8/8
restart of pulsation ([3]; 20 μg/ml, 3 J/cm^2): The pulsation did not restart permanently
cell conditions at one day after PDT ([3]; 20 μg/ml, 3 J/cm^2, FIG. 13): Associated cells were separated, and individual cells themselves shrank
average of the half-lives in plasma from 2 to 24 h ([4]; after intravenous injection): 9.6 h
average of the half-lives in plasma from 2 to 60 min ([4]; intravenous injection 10 mg/kg): 47 min
